Measurements taken from ChEMBL document CHEMBL1126397, “Synthesis of acid stable 5-o-fluoromethyl phosphonates of nucleosides. Evaluation as inhibitors of reverse transcriptase” (Bioorg Med Chem Lett, 1992).
Values after ≈ are worked out from the molar mass of the structure shown.

What was measured:
[1] = tested on: Avian myeloblastosis virus; assay: The compound was evaluated as inhibitor of avian myeloblastosis virus (AMV) reverse transcriptase; format: functional, organism-based
[2] = molecular target: T1, Human immunodeficiency virus type 1 reverse transcriptase (Human immunodeficiency virus 1, UniProt Q72547); assay: The compound was evaluated as inhibitor of recombinant HIV-l reverse transcriptase
[3] = tested on: Avian myeloblastosis virus; assay: Compound was evaluated as inhibitor of avian myeloblastosis virus (AMV) reverse transcriptase; format: functional, organism-based
[4] = molecular target: T1, Human immunodeficiency virus type 1 reverse transcriptase; assay: Compound was evaluated as inhibitor of recombinant HIV-l reverse transcriptase
[5] = molecular target: T2, Avian myoblastosis virus polyprotein II (Avian myeloblastosis virus, UniProt Q86831); assay: Inhibitor of avian myeloblastosis virus AMV reverse transcriptase
T2 sequence (Q86831 whole entry): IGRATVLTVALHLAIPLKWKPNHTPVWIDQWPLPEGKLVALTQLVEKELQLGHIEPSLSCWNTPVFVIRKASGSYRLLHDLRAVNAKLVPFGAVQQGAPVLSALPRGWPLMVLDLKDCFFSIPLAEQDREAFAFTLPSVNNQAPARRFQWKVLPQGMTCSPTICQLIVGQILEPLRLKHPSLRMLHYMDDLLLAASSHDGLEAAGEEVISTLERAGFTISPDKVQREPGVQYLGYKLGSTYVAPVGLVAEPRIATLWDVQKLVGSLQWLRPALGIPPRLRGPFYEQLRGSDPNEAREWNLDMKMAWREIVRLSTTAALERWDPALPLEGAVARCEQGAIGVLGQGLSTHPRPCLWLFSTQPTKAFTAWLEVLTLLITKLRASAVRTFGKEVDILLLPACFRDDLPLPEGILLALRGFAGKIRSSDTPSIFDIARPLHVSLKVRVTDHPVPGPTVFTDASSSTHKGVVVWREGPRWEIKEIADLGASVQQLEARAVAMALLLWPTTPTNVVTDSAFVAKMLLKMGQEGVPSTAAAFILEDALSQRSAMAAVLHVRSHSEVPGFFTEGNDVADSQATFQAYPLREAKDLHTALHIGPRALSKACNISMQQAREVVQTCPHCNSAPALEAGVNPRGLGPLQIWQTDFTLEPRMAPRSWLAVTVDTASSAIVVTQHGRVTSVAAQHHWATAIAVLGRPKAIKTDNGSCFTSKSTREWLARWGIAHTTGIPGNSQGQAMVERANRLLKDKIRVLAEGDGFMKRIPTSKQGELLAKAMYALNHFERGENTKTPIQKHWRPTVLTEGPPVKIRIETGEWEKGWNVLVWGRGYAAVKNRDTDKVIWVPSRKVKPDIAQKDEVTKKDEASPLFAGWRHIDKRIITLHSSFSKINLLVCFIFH

## Nc1nc(O)c2ncn(C3O[C@H](COP(=O)(O)C(F)F)[C@@H](O)[C@H]3O)c2n1 (stereo partly drawn)
[1]
  IC50: 150 µg/mL (≈ 378 µM)

## Cc1cn(C2CC(N=[N+]=[N-])C(COP(=O)(O)CF)O2)c(=O)[nH]c1=O (stereo not drawn)
[2]
  IC50: 110 µM

## Cc1cn(C2CC(N=[N+]=[N-])C(COP(=O)(O)C(F)(F)F)O2)c(=O)[nH]c1=O (stereo not drawn)
[2]
  IC50: 30.1 µM

## Cc1cn(C2CC(N=[N+]=[N-])C(COP(=O)(O)C(F)F)O2)c(=O)[nH]c1=O (stereo not drawn)
[2]
  IC50: 55.1 µM

## Cc1cn([C@H]2C[C@H](N=[N+]=[N-])[C@@H](CO)O2)c(=O)[nH]c1=O [ZIDOVUDINE]
[3]
  IC50: 600 µg/mL (≈ 2250 µM)
[4]
  IC50: 2990 µM

## O=c1[nH]c(=O)n([C@H]2C[C@H](O)[C@@H](COP(=O)(O)C(F)(F)F)O2)cc1F
[2]
  IC50: 47.6 µM

## Nc1ncnc2c1ncn2C1O[C@H](COP(=O)(O)C(F)F)[C@@H](O)[C@H]1O (stereo partly drawn)
[5]
  IC50: > 1050 µM

## Cc1cn([C@H]2C[C@H](N=[N+]=[N-])[C@@H](COP(=O)(O)O)O2)c(=O)[nH]c1=O [AZIDOTHYMIDINE MONOPHOSPHATE]
[1]
  IC50: 900 µg/mL
[2]
  IC50: > 2880 µM

## Cc1cn([C@H]2C[C@H](N=[N+]=[N-])[C@@H](CO[P@](=O)(O)O[P@](=O)(O)OP(=O)(O)O)O2)c(=O)[nH]c1=O [ZIDOVUDINE TRIPHOSPHATE]
[1]
  IC50: 0.06 µg/mL
[2]
  IC50: 0.237 µM

## O=c1ccn(C2O[C@H](COP(=O)(O)C(F)F)[C@@H](O)[C@H]2O)c(=O)[nH]1 (stereo partly drawn)
[5]
  IC50: > 1120 µM
